From the NIST ThermoML archive (doi:10.1021/je4004806)
Numbers after ± are expanded uncertainties.

Experiment: xn = mol fraction of the nth substance listed
Details: 101 kPa, Liquid; for viscosity: Capillary tube (Ostwald / Ubbelohde) method; for mass density: Vibrating tube method

With CCCCCCCC [octane] + CCCCO the viscosity (293.15 K, x1 = 0.0967) was 2.243 ± 0.029 mPa·s, the viscosity (293.15 K, x1 = 0.1999) was 1.722 ± 0.021 mPa·s and the viscosity (293.15 K, x1 = 0.3022) was 1.363 ± 0.017 mPa·s. It also gave a viscosity (293.15 K, x1 = 0.4064) of 1.078 ± 0.014 mPa·s, a viscosity (293.15 K, x1 = 0.4995) of 0.903 ± 0.012 mPa·s and a viscosity (293.15 K, x1 = 0.6004) of 0.766 ± 0.01 mPa·s. It also gave a viscosity (293.15 K, x1 = 0.7002) of 0.672 ± 0.01 mPa·s, a viscosity (293.15 K, x1 = 0.7999) of 0.603 ± 0.009 mPa·s and a viscosity (293.15 K, x1 = 0.8991) of 0.571 ± 0.009 mPa·s. For the same compound, the viscosity (293.15 K, x1 = 1) was 0.545 ± 0.009 mPa·s, the mass density (293.15 K, x1 = 0.0967) was 792 ± 0.68 kg/m3 and the mass density (293.15 K, x1 = 0.1999) was 775.92 ± 0.6 kg/m3. It also gave a mass density (293.15 K, x1 = 0.3022) of 761.86 ± 0.53 kg/m3, a mass density (293.15 K, x1 = 0.4064) of 749.45 ± 0.47 kg/m3 and a mass density (293.15 K, x1 = 0.4995) of 739.67 ± 0.42 kg/m3. For the same compound, the mass density (293.15 K, x1 = 0.6004) was 730.23 ± 0.38 kg/m3, the mass density (293.15 K, x1 = 0.7002) was 721.95 ± 0.35 kg/m3 and the mass density (293.15 K, x1 = 0.7999) was 714.61 ± 0.32 kg/m3. It also gave a mass density (293.15 K, x1 = 0.8991) of 708.11 ± 0.28 kg/m3, a mass density (293.15 K, x1 = 1) of 702.54 ± 0.15 kg/m3 and a viscosity (298.15 K, x1 = 0.0967) of 1.983 ± 0.025 mPa·s. For the same compound, the viscosity (298.15 K, x1 = 0.1999) was 1.537 ± 0.019 mPa·s, the viscosity (298.15 K, x1 = 0.3022) was 1.223 ± 0.015 mPa·s and the viscosity (298.15 K, x1 = 0.4064) was 0.974 ± 0.013 mPa·s. The viscosity (298.15 K, x1 = 0.4995) was 0.826 ± 0.011 mPa·s, the viscosity (298.15 K, x1 = 0.6004) was 0.709 ± 0.01 mPa·s and the viscosity (298.15 K, x1 = 0.7002) was 0.626 ± 0.009 mPa·s. For the same compound, the viscosity (298.15 K, x1 = 0.7999) was 0.565 ± 0.009 mPa·s, the viscosity (298.15 K, x1 = 0.8991) was 0.537 ± 0.009 mPa·s and the viscosity (298.15 K, x1 = 1) was 0.513 ± 0.009 mPa·s. It also gave a mass density (298.15 K, x1 = 0.0967) of 788.1 ± 0.69 kg/m3, a mass density (298.15 K, x1 = 0.1999) of 771.93 ± 0.6 kg/m3 and a mass density (298.15 K, x1 = 0.3022) of 757.83 ± 0.53 kg/m3. The mass density (298.15 K, x1 = 0.4064) was 745.37 ± 0.47 kg/m3, the mass density (298.15 K, x1 = 0.4995) was 735.56 ± 0.42 kg/m3 and the mass density (298.15 K, x1 = 0.6004) was 726.12 ± 0.38 kg/m3. The mass density (298.15 K, x1 = 0.7002) was 717.8 ± 0.35 kg/m3, the mass density (298.15 K, x1 = 0.7999) was 710.5 ± 0.32 kg/m3 and the mass density (298.15 K, x1 = 0.8991) was 704 ± 0.28 kg/m3. The mass density (298.15 K, x1 = 1) was 698.49 ± 0.15 kg/m3, the viscosity (303.15 K, x1 = 0.0967) was 1.762 ± 0.022 mPa·s and the viscosity (303.15 K, x1 = 0.1999) was 1.375 ± 0.017 mPa·s. The viscosity (303.15 K, x1 = 0.3022) was 1.102 ± 0.014 mPa·s, the viscosity (303.15 K, x1 = 0.4064) was 0.885 ± 0.012 mPa·s and the viscosity (303.15 K, x1 = 0.4995) was 0.758 ± 0.01 mPa·s. For the same compound, the viscosity (303.15 K, x1 = 0.6004) was 0.655 ± 0.01 mPa·s, the viscosity (303.15 K, x1 = 0.7002) was 0.584 ± 0.009 mPa·s and the viscosity (303.15 K, x1 = 0.7999) was 0.529 ± 0.009 mPa·s. For the same compound, the viscosity (303.15 K, x1 = 0.8991) was 0.503 ± 0.009 mPa·s, the viscosity (303.15 K, x1 = 1) was 0.485 ± 0.009 mPa·s and the mass density (303.15 K, x1 = 0.0967) was 784.17 ± 0.69 kg/m3. It also gave a mass density (303.15 K, x1 = 0.1999) of 767.92 ± 0.61 kg/m3, a mass density (303.15 K, x1 = 0.3022) of 753.77 ± 0.53 kg/m3 and a mass density (303.15 K, x1 = 0.4064) of 741.27 ± 0.47 kg/m3. The mass density (303.15 K, x1 = 0.4995) was 731.43 ± 0.42 kg/m3, the mass density (303.15 K, x1 = 0.6004) was 721.97 ± 0.38 kg/m3 and the mass density (303.15 K, x1 = 0.7002) was 713.65 ± 0.35 kg/m3. It also gave a mass density (303.15 K, x1 = 0.7999) of 706.35 ± 0.32 kg/m3, a mass density (303.15 K, x1 = 0.8991) of 699.87 ± 0.28 kg/m3 and a mass density (303.15 K, x1 = 1) of 694.44 ± 0.16 kg/m3. For the same compound, the viscosity (308.15 K, x1 = 0.0967) was 1.577 ± 0.02 mPa·s, the viscosity (308.15 K, x1 = 0.1999) was 1.232 ± 0.015 mPa·s and the viscosity (308.15 K, x1 = 0.3022) was 0.996 ± 0.013 mPa·s. It also gave a viscosity (308.15 K, x1 = 0.4064) of 0.809 ± 0.011 mPa·s, a viscosity (308.15 K, x1 = 0.4995) of 0.698 ± 0.01 mPa·s and a viscosity (308.15 K, x1 = 0.6004) of 0.609 ± 0.009 mPa·s. The viscosity (308.15 K, x1 = 0.7002) was 0.546 ± 0.009 mPa·s, the viscosity (308.15 K, x1 = 0.7999) was 0.497 ± 0.009 mPa·s and the viscosity (308.15 K, x1 = 0.8991) was 0.473 ± 0.009 mPa·s. For the same compound, the viscosity (308.15 K, x1 = 1) was 0.459 ± 0.009 mPa·s, the mass density (308.15 K, x1 = 0.0967) was 780.22 ± 0.69 kg/m3 and the mass density (308.15 K, x1 = 0.1999) was 763.9 ± 0.61 kg/m3. For the same compound, the mass density (308.15 K, x1 = 0.3022) was 749.68 ± 0.54 kg/m3, the mass density (308.15 K, x1 = 0.4064) was 737.13 ± 0.48 kg/m3 and the mass density (308.15 K, x1 = 0.4995) was 727.27 ± 0.42 kg/m3. The mass density (308.15 K, x1 = 0.6004) was 717.79 ± 0.38 kg/m3, the mass density (308.15 K, x1 = 0.7002) was 709.47 ± 0.35 kg/m3 and the mass density (308.15 K, x1 = 0.7999) was 702.18 ± 0.32 kg/m3. For the same compound, the mass density (308.15 K, x1 = 0.8991) was 695.72 ± 0.28 kg/m3, the mass density (308.15 K, x1 = 1) was 690.37 ± 0.16 kg/m3 and the viscosity (313.15 K, x1 = 0.0967) was 1.4 ± 0.018 mPa·s. The viscosity (313.15 K, x1 = 0.1999) was 1.11 ± 0.014 mPa·s, the viscosity (313.15 K, x1 = 0.3022) was 0.904 ± 0.012 mPa·s and the viscosity (313.15 K, x1 = 0.4064) was 0.74 ± 0.011 mPa·s. It also gave a viscosity (313.15 K, x1 = 0.4995) of 0.644 ± 0.01 mPa·s, a viscosity (313.15 K, x1 = 0.6004) of 0.566 ± 0.009 mPa·s and a viscosity (313.15 K, x1 = 0.7002) of 0.511 ± 0.009 mPa·s. The viscosity (313.15 K, x1 = 0.7999) was 0.467 ± 0.009 mPa·s, the viscosity (313.15 K, x1 = 0.8991) was 0.447 ± 0.009 mPa·s and the viscosity (313.15 K, x1 = 1) was 0.433 ± 0.009 mPa·s. It also gave a mass density (313.15 K, x1 = 0.0967) of 776.24 ± 0.7 kg/m3, a mass density (313.15 K, x1 = 0.1999) of 759.83 ± 0.61 kg/m3 and a mass density (313.15 K, x1 = 0.3022) of 745.56 ± 0.54 kg/m3. It also gave a mass density (313.15 K, x1 = 0.4064) of 732.96 ± 0.48 kg/m3, a mass density (313.15 K, x1 = 0.4995) of 723.07 ± 0.42 kg/m3 and a mass density (313.15 K, x1 = 0.6004) of 713.59 ± 0.38 kg/m3. The mass density (313.15 K, x1 = 0.7002) was 705.27 ± 0.35 kg/m3, the mass density (313.15 K, x1 = 0.7999) was 697.97 ± 0.32 kg/m3 and the mass density (313.15 K, x1 = 0.8991) was 691.54 ± 0.28 kg/m3. For the same compound, the mass density (313.15 K, x1 = 1) was 686.29 ± 0.16 kg/m3, the viscosity (318.15 K, x1 = 0.0967) was 1.258 ± 0.016 mPa·s and the viscosity (318.15 K, x1 = 0.1999) was 1 ± 0.013 mPa·s. For the same compound, the viscosity (318.15 K, x1 = 0.3022) was 0.821 ± 0.011 mPa·s, the viscosity (318.15 K, x1 = 0.4064) was 0.679 ± 0.01 mPa·s and the viscosity (318.15 K, x1 = 0.4995) was 0.595 ± 0.009 mPa·s. For the same compound, the viscosity (318.15 K, x1 = 0.6004) was 0.527 ± 0.009 mPa·s, the viscosity (318.15 K, x1 = 0.7002) was 0.479 ± 0.009 mPa·s and the viscosity (318.15 K, x1 = 0.7999) was 0.44 ± 0.009 mPa·s. The viscosity (318.15 K, x1 = 0.8991) was 0.42 ± 0.009 mPa·s, the viscosity (318.15 K, x1 = 1) was 0.412 ± 0.008 mPa·s and the mass density (318.15 K, x1 = 0.0967) was 772.22 ± 0.7 kg/m3. The mass density (318.15 K, x1 = 0.1999) was 755.73 ± 0.62 kg/m3, the mass density (318.15 K, x1 = 0.3022) was 741.39 ± 0.54 kg/m3 and the mass density (318.15 K, x1 = 0.4064) was 728.75 ± 0.48 kg/m3. The mass density (318.15 K, x1 = 0.4995) was 718.84 ± 0.43 kg/m3, the mass density (318.15 K, x1 = 0.6004) was 709.35 ± 0.39 kg/m3 and the mass density (318.15 K, x1 = 0.7002) was 701.03 ± 0.35 kg/m3. It also gave a mass density (318.15 K, x1 = 0.7999) of 693.72 ± 0.32 kg/m3, a mass density (318.15 K, x1 = 0.8991) of 687.33 ± 0.28 kg/m3 and a mass density (318.15 K, x1 = 1) of 682.19 ± 0.16 kg/m3. It also gave a viscosity (323.15 K, x1 = 0.0967) of 1.134 ± 0.014 mPa·s, a viscosity (323.15 K, x1 = 0.1999) of 0.907 ± 0.012 mPa·s and a viscosity (323.15 K, x1 = 0.3022) of 0.751 ± 0.011 mPa·s. It also gave a viscosity (323.15 K, x1 = 0.4064) of 0.625 ± 0.01 mPa·s, a viscosity (323.15 K, x1 = 0.4995) of 0.552 ± 0.009 mPa·s and a viscosity (323.15 K, x1 = 0.6004) of 0.493 ± 0.009 mPa·s. The viscosity (323.15 K, x1 = 0.7002) was 0.45 ± 0.009 mPa·s, the viscosity (323.15 K, x1 = 0.7999) was 0.415 ± 0.009 mPa·s and the viscosity (323.15 K, x1 = 0.8991) was 0.397 ± 0.008 mPa·s. For the same compound, the viscosity (323.15 K, x1 = 1) was 0.392 ± 0.008 mPa·s, the mass density (323.15 K, x1 = 0.0967) was 768.16 ± 0.7 kg/m3 and the mass density (323.15 K, x1 = 0.1999) was 751.58 ± 0.62 kg/m3. The mass density (323.15 K, x1 = 0.3022) was 737.18 ± 0.54 kg/m3, the mass density (323.15 K, x1 = 0.4064) was 724.5 ± 0.48 kg/m3 and the mass density (323.15 K, x1 = 0.4995) was 714.57 ± 0.43 kg/m3. The mass density (323.15 K, x1 = 0.6004) was 705.07 ± 0.39 kg/m3, the mass density (323.15 K, x1 = 0.7002) was 696.75 ± 0.35 kg/m3 and the mass density (323.15 K, x1 = 0.7999) was 689.48 ± 0.32 kg/m3. The mass density (323.15 K, x1 = 0.8991) was 683.1 ± 0.28 kg/m3 and the mass density (323.15 K, x1 = 1) was 678.08 ± 0.16 kg/m3.
